# Laboratory results: the supplement of paper PMC12137928
# Counter-ions that a name gives are not always drawn.
# Tested on: HCT116
# Conditions: 72 h
# How it was run: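 HCT116 cells were seeded at 250 per well in 1536-well plates with 5 h allowed for attachment. CellTiter-Glo luminescence was normalized against vehicle (0%) and positive control (-100%) before pattern correction. The IC50 and maximal efficacy figures derive from four-parameter Hill fits.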
SMILES,IC50 cell viability (ICRF193 0 nM) [µM],IC50 cell viability (ICRF193 200 nM) [µM]
CC[C@H]1OC(=O)[C@H](C)[C@@H](O[C@H]2C[C@@](C)(OC)[C@@H](O)[C@H](C)O2)[C@H](C)[C@@H](O[C@@H]2O[C@H](C)C[C@H](N(C)C)[C@H]2O)[C@](C)(O)C[C@@H](C)[C@@H]2N[C@@H](COCCOC)O[C@H]([C@H]2C)[C@]1(C)O [Dirithromycin],> 45.8,> 45.8
Cc1ccc(/N=C/N(C)/C=N/c2ccc(C)cc2C)c(C)c1 [Amitraz],> 45.8,> 45.8
Clc1ccc(C(OCCN2CCCCC2)c2ccccc2)cc1 (stereo not drawn) [Cloperastine hydrochloride],> 45.8,> 45.8
CCCc1c2oc(C(=O)O)cc(=O)c2cc2c(=O)cc(C(=O)O)n(CC)c12 [Nedocromil],> 45.8,> 45.8
COc1ncnc(NS(=O)(=O)c2ccc(N)cc2)c1OC [Sulfadoxine],> 45.8,> 45.8
C=CCN1CC[C@]23c4c5ccc(O)c4O[C@H]2C(=O)CC[C@@]3(O)[C@H]1C5 [Naloxone],> 45.8,> 45.8
CNC1CCCN(c2c(F)cc3c(=O)c(C(=O)O)cn(C4CC4)c3c2OC)C1 (stereo not drawn) [Balofloxacin],> 45.8,> 45.8
CC[C@@H](CO)NC(=O)[C@@H]1C=C2c3cccc4[nH]cc(c34)C[C@H]2N(C)C1 [Methergine],> 45.8,> 45.8
CN(C)[C@@H]1C(O)=C(C(N)=O)C(=O)[C@@]2(O)C(O)=C3C(=O)c4c(O)cccc4[C@@](C)(O)[C@H]3C[C@@H]12 [Tetracycline hydrochloride],> 45.8,> 45.8
COCC(=O)Nc1c(I)c(C(=O)NCC(O)CO)c(I)c(C(=O)N(C)CC(O)CO)c1I (stereo not drawn) [Iopromide],> 45.8,> 45.8
Cc1ccc(NC(=O)c2ccc(CN3CCN(C)CC3)cc2)cc1Nc1nccc(-c2cccnc2)n1 [Imatinib],> 45.8,> 45.8
C[C@]12CC[C@H](O)CC1=CC[C@@H]1[C@@H]2CC[C@]2(C)C(=O)CC[C@@H]12 [Dehydroepiandrosterone],> 45.8,> 45.8
C/C(=C(\CCO)SS/C(CCO)=C(/C)N(C=O)Cc1cnc(C)nc1N)N(C=O)Cc1cnc(C)nc1N [Thiamine disulfide],> 45.8,> 45.8
CN(C)CC[C@@H](c1ccc(Cl)cc1)c1ccccn1 [Dexchlorpheniramine hydrochloride],> 45.8,> 45.8
CCN1CCCC(OC(=O)C(c2ccccc2)c2ccccc2)C1 (stereo not drawn) [Piperidolate hydrochloride],> 45.8,> 45.8
O=C(NCC(O)CO)c1c(I)c(C(=O)NCC(O)CO)c(I)c(N(CCO)C(=O)CO)c1I (stereo not drawn) [Ioversol],> 45.8,> 45.8

SMILES,IC50 cell viability (ICRF193 0 nM) [µM],IC50 cell viability (ICRF193 200 nM) [µM]
O=[N+]([O-])/N=C1\NCCN1Cc1ccc(Cl)nc1 [Imidacloprid],> 45.8,> 45.8
C=C[C@]1(C)C[C@@H](OC(=O)CS[C@@H]2C[C@H]3CC[C@@H](C2)N3C)[C@]2(C)[C@H](C)CC[C@]3(CCC(=O)[C@H]32)[C@@H](C)[C@@H]1O [Retapamulin],> 45.8,> 45.8
CN(C)c1ccc(O)c2c1C[C@H]1C[C@H]3[C@H](N(C)C)C(O)=C(C(N)=O)C(=O)[C@@]3(O)C(O)=C1C2=O [Minocycline hydrochloride],> 45.8,> 45.8
NCCCC[C@H](N[C@@H](CCc1ccccc1)C(=O)O)C(=O)N1CCC[C@H]1C(=O)O [Lisinopril dihydrate],> 45.8,> 45.8
O=C(O[C@@H]1C[C@@H]2C[C@H]3C[C@H](C1)N2CC3=O)c1c[nH]c2ccccc12 [Dolasetron mesylate hydrate],> 45.8,> 45.8
c1ccc2sc(SNC3CCCCC3)nc2c1 [N-Cyclohexyl-2-benzothiazolesulfenamide],> 45.8,> 45.8
N=C(N)c1ccc(OCCCOc2ccc(C(=N)N)cc2)cc1 [Propamidine],> 45.8,> 45.8
CCN(C)C(=O)Oc1cccc([C@H](C)N(C)C)c1 [Rivastigmine tartrate],> 45.8,> 45.8
COC(=O)CCC(=O)CN [Methyl delta-aminolevulinate hydrochloride],> 45.8,> 45.8
COP(=O)(OC)C(O)C(Cl)(Cl)Cl (stereo not drawn) [Trichlorfon],> 45.8,> 45.8
C[N+]1(C)CCCCC1COC(=O)C(O)(c1ccccc1)c1ccccc1 (stereo not drawn) [Bevonium metilsulfate],> 45.8,> 45.8
OC[C@H]1O[C@@H](c2ccc(Cl)c(Cc3ccc(O[C@H]4CCOC4)cc3)c2)[C@H](O)[C@@H](O)[C@@H]1O,> 45.8,> 45.8
C[C@@H]1C[C@H]2[C@@H]3CCC4=CC(=O)C=C[C@]4(C)[C@@]3(F)[C@@H](O)C[C@]2(C)[C@@]1(O)C(=O)COC(=O)c1ccncc1 [Dexamethasone isonicotinate],> 45.8,> 45.8
CCC(=O)O[C@H]1[C@H](O[C@@H]2[C@@H](C)[C@H](O[C@H]3C[C@@](C)(OC)[C@@H](O)[C@H](C)O3)[C@@H](C)C(=O)O[C@H](CC)[C@@](C)(O)[C@H](O)[C@@H](C)C(=O)[C@H](C)C[C@@]2(C)O)O[C@H](C)C[C@@H]1N(C)C [Erythromycin propionate],> 45.8,> 45.8
CC(=O)OCC(=O)[C@@]1(O)[C@H](C)C[C@H]2[C@@H]3C[C@H](F)C4=CC(=O)C=C[C@]4(C)[C@H]3[C@@H](O)C[C@@]21C [Paramethasone acetate],> 45.8,> 45.8
C#CC(O)(/C=C/Cl)CC (stereo not drawn) [Ethchlorvynol],> 45.8,> 45.8

# Results, then the molecule that gave them:
IC50 cell viability (ICRF193 0 nM) [µM],IC50 cell viability (ICRF193 200 nM) [µM],SMILES
> 45.8,> 45.8,CCCCOC(=O)c1ccc(O)cc1 [Butylparaben]
> 45.8,> 45.8,C[C@](N)(Cc1ccc(O)c(O)c1)C(=O)O [Methyldopa]
> 45.8,> 45.8,CC1(C)S[C@@H]2[C@H](NC(=O)[C@H](C(=O)O)c3ccsc3)C(=O)N2[C@H]1C(=O)O [Ticarcillin sodium]
> 45.8,> 45.8,O=C(O)CCCCC(=O)O [Hexanedioic acid]
> 45.8,> 45.8,CCN(CC)CCNC(=O)c1cc(S(C)(=O)=O)ccc1OC [Tiapride hydrochloride]
> 45.8,> 45.8,CCOC(=O)NNc1nncc2ccccc12 [Todralazine hydrochloride]
> 45.8,> 45.8,O[C@@H]([C@H](O)[C@H](O)CBr)[C@H](O)CBr [Dibromomannitol]
> 45.8,> 45.8,Cc1cc(NS(=O)(=O)c2ccc(N)cc2)nc(C)n1 [Sulfisomidine]
> 45.8,> 45.8,NC(=O)C1(N2CCCCC2)CCN(CCCC(=O)c2ccc(F)cc2)CC1 [Pipamperone dihydrochloride]
> 45.8,> 45.8,CCOc1cc(CC(=O)N[C@@H](CC(C)C)c2ccccc2N2CCCCC2)ccc1C(=O)O [Repaglinide]
> 45.8,> 45.8,"CC1(O)CCC(C(C)(C)O)CC1 (stereo not drawn) [p-Menthane-1,8-diol monohydrate]"
> 45.8,> 45.8,CC(=O)CCC(=O)O [Calcium levulinate]
> 45.8,> 45.8,O=C1NC(c2ccccc2)(c2ccccc2)C(=O)N1COP(=O)(O)O [Fosphenytoin]
> 45.8,> 45.8,COc1ccc(CCNCC(O)COc2cccc(C)c2)cc1OC (stereo not drawn) [Bevantolol hydrochloride]
> 45.8,> 45.8,O=C(CCCCC(=O)Nc1c(I)cc(I)c(C(=O)O)c1I)Nc1c(I)cc(I)c(C(=O)O)c1I [Iodipamide]
> 45.8,> 45.8,C[C@@H](CN1CC(=O)NC(=O)C1)N1CC(=O)NC(=O)C1 [Dexrazoxane hydrochloride]
> 45.8,> 45.8,O=c1[nH]c(=O)n([C@H]2C[C@H](O)[C@@H](CO)O2)cc1I [Idoxuridine]
> 45.8,> 45.8,CCOc1ccc(Cc2cc([C@@H]3O[C@H](CO)[C@@H](O)[C@H](O)[C@H]3O)ccc2Cl)cc1 [Dapagliflozin]
> 45.8,> 45.8,CC(=O)OCC1=C(C(=O)O)N2C(=O)[C@@H](NC(=O)Cc3cccs3)[C@H]2SC1 [Cephalothin]
> 45.8,> 45.8,CC(=O)Nc1ccc(S(=O)(=O)Nc2cc(C)on2)cc1 [N-Acetyl sulfamethoxazole]
> 45.8,> 45.8,C#CCN(C)Cc1ccccc1 [Pargyline hydrochloride]
> 45.8,> 45.8,CCOC(=O)Nc1ccc2c(c1)N(C(=O)CCN1CCOCC1)c1ccccc1S2 [Moricizine hydrochloride]
> 45.8,> 45.8,COc1cc2c(c(OC)c1OC)-c1c(cc3c(c1OC)OCO3)C[C@H](C)[C@@](C)(O)C2 [Schisandrol B]
> 45.8,> 45.8,CCCCC(CC)COC(=O)C(C#N)=C(c1ccccc1)c1ccccc1 (stereo not drawn) [Octocrylene]
> 45.8,> 45.8,Cc1ccc(=O)n(-c2ccccc2)c1 [Pirfenidone]
> 45.8,> 45.8,CCCCNc1ccc(C(=O)OCCOCCOCCOCCOCCOCCOCCOCCOCCOC)cc1 [Benzonatate]
> 45.8,> 45.8,CCCCNC(=N)NC(=N)N [Buformin]
